Here are results for 30 molecules from patent US9682995B2, “Amino-substituted isothiazoles” (BAYER PHARMA AKTIENGESELLSCHAFT, priority 2013, dated 2017).

One experiment addresses CDK2/CycE (Homo sapiens (Human), UniProt P24941). Description: CDK2/CycE kinase assay (TR-FRET). It counts as biochemical. The conditions noted are these: 10 μM ATP; read-out: CDK2 avg (IC50 [mol/l]). The method, boiled down:
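GST-tagged human CDK2 and GST-CycE from Sf9 cells (~130 ng/ml) were preincubated with compound for 15 min at 22 °C. Reaction with 10 μM ATP and 0.75 μM biotinylated peptide (final) ran 25 min at 22 °C, pH 8.0. Phospho-peptide was read by TR-FRET (665/620 nm ratio, anti-pRB antibody, Eu donor) and normalised to no-enzyme and no-inhibitor controls.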
(In TR-FRET formats the signal depends on donor and acceptor labels being close together.)

In experiment [1] the test system is spindle assembly checkpoint. Briefly: SAC-Formation - Nocodazole-Induced Assay. The format is cell-based. To be noted: Homo sapiens; HeLa cells, nocodazole 0.1 μg/ml, 24 h, phosphorylated histone H3 on serine 10. The gist of the method:
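HeLa cells were given nocodazole at 0.1 μg/ml final together with compounds (0.005–20 μM, 0.5% DMSO) for 24 h at 37° C. Mitotic cells were counted by phospho-histone H3 Ser10 immunostaining, with cell number from HOECHST 33342, by high-content imaging. The loss of mitotic cells was fitted with a four-parameter Hill equation.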

Structures are written as SMILES.

`CCc1cncc(Nc2snc(C)c2C(=O)Nc2ccc(F)c(F)c2)n1` [Example 76, N-(3,4-Difluorophenyl)-5-[(6-ethylpyrazin-2-yl)amino]-3-methyl-1,2-thiazole-4-carboxamide]: the IC50 on CDK2/CycE is above 20000 nM; in experiment [1] it was 52 nM.

With `CNC(=O)c1ccc(Nc2snc(C)c2C(=O)Nc2ccc(F)c(F)c2)nn1` [Example 80, 6-({4-[(3,4-Difluorophenyl)carbamoyl]-3-methyl-1,2-thiazol-5-yl}amino)-N-methylpyridazine-3-carboxamide], the IC50 was above 20000 nM on CDK2/CycE and 1900 nM in experiment [1]. The matching figures for `Cc1nsc(Nc2cncc(-n3cccn3)n2)c1C(=O)Nc1ccc(F)c(F)c1` [Example 64, N-(3,4-Difluorophenyl)-3-methyl-5-{[6-(1H-pyrazol-1-yl)pyrazin-2-yl]amino}-1,2-thiazole-4-carboxamide]: 8400 nM and 97 nM. For the molecule `Cc1nsc(Nc2cnc3cc(C(F)(F)F)ccc3n2)c1C(=O)Nc1ccc(Cl)c(Cl)c1` [Example 61, N-(3,4-Dichlorophenyl)-3-methyl-5-{[6-(trifluoromethyl)quinoxalin-2-yl]amino}-1,2-thiazole-4-carboxamide], the IC50 at CDK2/CycE is above 20000 nM; in experiment [1], 310 nM. For the molecule `Cc1nsc(Nc2cncc(C(F)(F)F)n2)c1C(=O)Nc1ccc(F)c(F)c1` [Example 82, N-(3,4-Difluorophenyl)-3-methyl-5-{[6-(trifluoromethyl)pyrazin-2-yl]amino}-1,2-thiazole-4-carboxamide], the IC50 in experiment [1] came to 21 nM. `COc1ccc(NC(=O)c2c(C)nsc2Nc2nc3ccc(F)cc3s2)cn1` [Example 88, 5-[(6-Fluoro-1,3-benzothiazol-2-yl)amino]-N-(6-methoxypyridin-3-yl)-3-methyl-1,2-thiazole-4-carboxamide]: the results for the IC50 (at CDK2/CycE; in experiment [1]) were above 20000 nM and 820 nM, respectively.

Consider `CNC(=O)c1cncc(Nc2snc(C)c2C(=O)Nc2ccc(F)c(F)c2)n1` [Example 70, 6-({4-[(3,4-Difluorophenyl)carbamoyl]-3-methyl-1,2-thiazol-5-yl}amino)-N-methylpyrazine-2-carboxamide], for which the IC50 on CDK2/CycE is above 20000 nM; in experiment [1] it was 99 nM. Consider `CCc1cnc(Nc2snc(C)c2C(=O)Nc2ccc(F)c(F)c2)cn1` [Example 79, N-(3,4-Difluorophenyl)-5-[(5-ethylpyrazin-2-yl)amino]-3-methyl-1,2-thiazole-4-carboxamide], for which the IC50 at CDK2/CycE is above 20000 nM; in experiment [1], 140 nM. Regarding `CCc1ccccc1NC(=O)c1c(C)nsc1Nc1cnc2cc(Cl)ccc2n1` [Example 86, 5-[(6-Chloroquinoxalin-2-yl)amino]-N-(2-ethylphenyl)-3-methyl-1,2-thiazole-4-carboxamide], the IC50 on CDK2/CycE was above 20000 nM; in experiment [1] it was 530 nM. For `COc1ccc(NC(=O)c2c(C)nsc2Nc2ncc(C(=O)N3CCOCC3)s2)cc1F` [Example 93, N-(3-Fluoro-4-methoxyphenyl)-3-methyl-5-{[5-(morpholin-4-ylcarbonyl)-1,3-thiazol-2-yl]amino}-1,2-thiazole-4-carboxamide] the same measures were above 20000 nM and 1400 nM. Regarding `CCc1ccccc1NC(=O)c1c(C)nsc1Nc1ncccc1C(F)(F)F` [Example 3, N-(2-Ethylphenyl)-3-methyl-5-{[3-(trifluoromethyl)pyridin-2-yl]amino}-1,2-thiazole-4-carboxamide], the IC50 on CDK2/CycE was above 20000 nM; in experiment [1] it was 3000 nM.

As to `Cc1nsc(Nc2cnc(Br)cn2)c1C(=O)Nc1ccc(F)c(F)c1` [Example 77, 5-[(5-Bromopyrazin-2-yl)amino]-N-(3,4-difluorophenyl)-3-methyl-1,2-thiazole-4-carboxamide], the IC50 at CDK2/CycE is above 20000 nM; in experiment [1], 18 nM. As to `CNC(=O)c1cnc(Nc2snc(C)c2C(=O)Nc2ccc(F)c(F)c2)cn1` [Example 75, 5-({4-[(3,4-Difluorophenyl)carbamoyl]-3-methyl-1,2-thiazol-5-yl}amino)-N-methylpyrazine-2-carboxamide], the values for the IC50 (on CDK2/CycE; in experiment [1]) were above 20000 nM and 81 nM, respectively. As for `Cc1nsc(Nc2cnccn2)c1C(=O)Nc1ccc(F)c(F)c1` [Example 65, N-(3,4-Difluorophenyl)-3-methyl-5-(pyrazin-2-ylamino)-1,2-thiazole-4-carboxamide], the IC50 is above 20000 nM on CDK2/CycE and 210 nM in experiment [1]. `COc1ccc(NC(=O)c2c(C)nsc2Nc2cnc(C(F)(F)F)cn2)cn1` [Example 85, N-(6-methoxypyridin-3-yl)-3-methyl-5-{[5-(trifluoromethyl)pyrazin-2-yl]amino}-1,2-thiazole-4-carboxamide]: the IC50 on CDK2/CycE is above 20000 nM; in experiment [1] it was 6.2 nM.

As to `Cc1nsc(Nc2ccc(C(F)(F)F)nn2)c1C(=O)Nc1ccc(F)c(F)c1` [Example 83, N-(3,4-Difluorophenyl)-3-methyl-5-{[6-(trifluoromethyl)pyridazin-3-yl]amino}-1,2-thiazole-4-carboxamide], the IC50 on CDK2/CycE was above 20000 nM; in experiment [1] it was 7 nM. Turning to `Cc1nsc(Nc2cnc(C(F)(F)F)cn2)c1C(=O)Nc1ccc(F)c(F)c1` [Example 81, N-(3,4-Difluorophenyl)-3-methyl-5-{[5-(trifluoromethyl)pyrazin-2-yl]amino}-1,2-thiazole-4-carboxamide], the IC50 was above 20000 nM at CDK2/CycE and 9.7 nM in experiment [1].

For `CCOC(=O)c1sc(Nc2snc(C)c2C(=O)Nc2ccc(Cl)c(F)c2)nc1C` [Example 95, Ethyl 2-({4-[(4-chloro-3-fluoro-phenyl)carbamoyl]-3-methyl-1,2-thiazol-5-yl}amino)-4-methyl-1,3-thiazole-5-carboxylate], the values for the IC50 (at CDK2/CycE; in experiment [1]) were above 20000 nM and 260 nM, respectively.

With `Cc1nsc(Nc2cnc3cc(C(F)(F)F)ccc3n2)c1C(=O)Nc1ccc(F)c(F)c1` [Example 60, N-(3,4-Difluorophenyl)-3-methyl-5-{[6-(trifluoromethyl)quinoxalin-2-yl]amino}-1,2-thiazole-4-carboxamide], the IC50 on CDK2/CycE is above 20000 nM; in experiment [1], 40 nM. For the molecule `COc1ccc(NC(=O)c2c(C)nsc2Nc2cnc3ccccc3n2)cn1` [Example 94, N-(6-Methoxypyridin-3-yl)-3-methyl-5-(quinoxalin-2-ylamino)-1,2-thiazole-4-carboxamide], the IC50 on CDK2/CycE is above 20000 nM; in experiment [1], 81 nM. Take `Cc1nsc(Nc2nc3c(C(F)(F)F)ccnc3s2)c1C(=O)Nc1ccc(F)c(F)c1` [Example 58, N-(3,4-Difluorophenyl)-3-methyl-5-{[7-(trifluoromethyl)[1,3]thiazolo[5,4-b]pyridin-2-yl]amino}-1,2-thiazole-4-carboxamide]: the IC50 at CDK2/CycE was above 20000 nM; in experiment [1], 280 nM. On to `CCOC(=O)c1cnc(Nc2snc(C)c2C(=O)Nc2ccccc2CC)s1` [Example 92, Ethyl 2-({4-[(2-ethylphenyl)-carbamoyl]-3-methyl-1,2-thiazol-5-yl}amino)-1,3-thiazole-5-carboxylate], for which the IC50 was above 20000 nM on CDK2/CycE and 1200 nM in experiment [1].

Consider `COC(=O)c1cncc(Nc2snc(C)c2C(=O)Nc2ccc(F)c(F)c2)n1` [Example 66, Methyl 6-({4-[(3,4-difluorophenyl)carbamoyl]-3-methyl-1,2-thiazol-5-yl}amino)-pyrazine-2-carboxylate], for which the IC50 was above 20000 nM on CDK2/CycE and 37 nM in experiment [1]. With `COc1cncc(Nc2snc(C)c2C(=O)Nc2ccc(F)c(F)c2)n1` [Example 72, N-(3,4-Difluorophenyl)-5-[(6-methoxypyrazin-2-yl)amino]-3-methyl-1,2-thiazole-4-carboxamide], the results for the IC50 (on CDK2/CycE; in experiment [1]) were above 20000 nM and 350 nM, respectively.

Regarding `Cc1nsc(Nc2cncc(-c3ncco3)n2)c1C(=O)Nc1ccc(Cl)c(F)c1` [Example 63, N-(4-Chloro-3-fluorophenyl)-3-methyl-5-{[6-(1,3-oxazol-2-yl)pyrazin-2-yl]amino}-1,2-thiazole-4-carboxamide], the IC50 at CDK2/CycE is above 20000 nM; in experiment [1] it was 180 nM.

As to `COC(=O)c1cnc(Nc2snc(C)c2C(=O)Nc2ccc(F)c(F)c2)cn1` [Example 59, Methyl 5-({4-[(3,4-difluorophenyl)carbamoyl]-3-methyl-1,2-thiazol-5-yl}amino)-pyrazine-2-carboxylate], the IC50 is above 20000 nM on CDK2/CycE and 260 nM in experiment [1]. The matching figures for `CCc1ccccc1NC(=O)c1c(C)nsc1Nc1ccncn1` [Example 2, N-(2-Ethylphenyl)-3-methyl-5-(pyrimidin-4-ylamino)-1,2-thiazole-4-carboxamide]: above 20000 nM and 4200 nM. As to `CCc1ccccc1NC(=O)c1c(C)nsc1Nc1cc(C#N)ccn1` [Example 4, 5-[(4-Cyanopyridin-2-yl)amino]-N-(2-ethylphenyl)-3-methyl-1,2-thiazole-4-carboxamide], the IC50 on CDK2/CycE is above 20000 nM; in experiment [1] it was 730 nM. Turning to `Cc1nsc(Nc2cncc(Cl)n2)c1C(=O)Nc1ccc(F)c(F)c1` [Example 71, 5-[(6-Chloropyrazin-2-yl)amino]-N-(3,4-difluorophenyl)-3-methyl-1,2-thiazole-4-carboxamide], the IC50 was determined as 8600 nM at CDK2/CycE and 94 nM in experiment [1].

Regarding `Cc1nsc(Nc2cncc(-n3cccn3)n2)c1C(=O)Nc1ccc(Cl)c(F)c1` [Example 67, N-(4-Chloro-3-fluorophenyl)-3-methyl-5-{[6-(1H-pyrazol-1-yl)pyrazin-2-yl]amino}-1,2-thiazole-4-carboxamide], the IC50 in experiment [1] was 12 nM.
